Here are results for two compounds from patent US8278072B1, “Method for synthesis of sialylated products using reversible sialylation” (Health Research, Inc., priority 2007, dated 2012).

Test [1] addresses T1, ST3Gal II (Cloned rat liver) (Rattus norvegicus, UniProt Q11205).
T1 construct: purchased Calbiochem
T1 sequence (Q11205 1-350): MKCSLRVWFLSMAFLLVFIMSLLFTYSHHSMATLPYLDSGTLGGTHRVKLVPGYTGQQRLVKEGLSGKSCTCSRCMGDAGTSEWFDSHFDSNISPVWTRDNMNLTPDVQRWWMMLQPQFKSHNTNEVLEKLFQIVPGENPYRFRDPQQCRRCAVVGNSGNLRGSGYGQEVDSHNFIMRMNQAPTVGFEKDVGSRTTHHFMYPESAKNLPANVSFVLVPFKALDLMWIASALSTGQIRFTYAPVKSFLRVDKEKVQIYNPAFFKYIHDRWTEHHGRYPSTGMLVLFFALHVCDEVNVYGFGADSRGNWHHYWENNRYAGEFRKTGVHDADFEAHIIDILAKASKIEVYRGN
Nature of the test: Forward (direct) sialyltransferase activity, ST3Gal-II. To be noted: donor CMP-[9-3H]NeuAc, acceptor [5], varying nucleotide concentrations. It counts as biochemical. How it is done: (§1) FIG. 5. Effect of 5′-nucleotides on direct sialyltransferase activity (panel a) and reverse sialylation (panel b). a. Varying concentrations of 5′-CDP or 5′-CMP were added to 100 mM acceptor (specified below), 0.15 mM CMP-[9-^3H]NeuAc and either ST3Gal-II (0.2 mU), ST3Gal-III (0.5 mU) or ST6Gal-I (0.2 mU) for 4 h at 37° C. Products were separated using Sep-Pak C18 method. ST3Gal-III activity was measured using acceptor 4-O-MeGalβ1,4GlcNAcβ-O-Bn in the presence of 5′-CDP (●) and 5′-CMP (◯). ST6Gal-I activity was measured using Gal β1,4GlcNAcβ-O-Bn in the presence of 5′-CDP (▴) and 5′-CMP (Δ). ST3Gal-II using D-Fucβ1,3GalNAcα-O-Bn in the presence of 5′-CDP (▪) and 5′-CMP (□). b) Reverse sialylation by ST3Gal-II was measured in reaction mixtures containing 0.2 mM [9-^3H] [3], 7 mM 5′-CMP, ST3Gal-II (2 mU), D-Fucβ1,3GalNAcα-OBn (3.0 mM) and varying doses of either 5′-CDP (▴), 5′-UMP (◯) or 2-deoxy 5′-CMP (●) for 4 hours at 37° C. Reaction product ([9-^3H]NeuAcα2,3DFucβ1,3 GalNAcα-O-Bn) was isolated using Sep-Pak C18 method. In some runs, where was absent, the amount of CMP-NeuAc produced was quantified using the Dowex-1 Formate method in the presence of varying doses of 5′-CDP (▪).
(§2) Besides pH other distinctions were also observed between forward and reverse sialylation. In this regard, citrate ions tended to inhibit forward sialylation but not reverse sialylation activity (Table V). For these studies, the effect of citrate on the forward sialylation activity of ST3Gal-I, ST3Gal-II, ST3Gal-III and ST6Gal-I was examined. Reverse sialylation activity of ST3Gal-II was also measured in terms of: i) the formation of CMP-NeuAc from 5′-CMP; and ii) the transfer of NeuAc from this newly synthesized CMP-NeuAc to another O-glycan. From the data (Table V), it is evident that citrate inhibits the direct sialylation activity of all the enzymes mentioned above. However, both the synthesis of CMP-[9-^3H]NeuAc from 5′-CMP as well as the synthesis of [9-^3H]NeuAcα2,3D-Fucβ1,3 GalNAcα-O-Bn using the newly formed CMP-[9-^3H]NeuAc through reverse sialylation of ST3Gal-II was not inhibited by citrate.
(§3) The effect of 5′-nucleotides on forward sialylation (FIG. 5a) and reverse sialylation (FIG. 5b) were examined. […] The overall formation of [9-^3H]NeuAcα2,3D-Fucβ1,3 GalNAcα-O-Bn by the two-step reverse sialylation process, however, was inhibited by 5′-CDP and this is consistent with the finding that 5′-CDP inhibits forward sialylation in the second step.

For test [2], the target named is T2, ST3Gal III (Cloned rat liver) (Rattus norvegicus, UniProt Q02734).
T2 construct: purchased Calbiochem
T2 sequence (Q02734 1-374): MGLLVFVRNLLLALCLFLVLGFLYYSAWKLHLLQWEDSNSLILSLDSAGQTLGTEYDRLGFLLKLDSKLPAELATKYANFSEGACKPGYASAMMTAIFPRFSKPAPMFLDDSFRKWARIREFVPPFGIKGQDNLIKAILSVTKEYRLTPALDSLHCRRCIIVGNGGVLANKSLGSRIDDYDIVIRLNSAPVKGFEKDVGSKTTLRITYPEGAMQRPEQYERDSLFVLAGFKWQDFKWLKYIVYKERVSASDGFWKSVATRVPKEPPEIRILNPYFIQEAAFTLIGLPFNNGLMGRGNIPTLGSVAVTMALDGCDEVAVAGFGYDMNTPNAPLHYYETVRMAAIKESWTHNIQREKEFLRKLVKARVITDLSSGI
Nature of the test: Forward (direct) sialyltransferase activity, ST3Gal-III. The class given is biochemical. To be noted: donor CMP-[9-3H]NeuAc, acceptor 4-O-MeGalβ1,4GlcNAcβ-O-Bn. As for the experimental part: as §1, §2, §3

For `Nc1ccn([C@@H]2O[C@H](COP(=O)(O)O)[C@@H](O)[C@H]2O)c(=O)n1` [5′-CMP, Cytidine 5′-monophosphate], the “Effect on forward sialylation activity of ST3Gal-II” value in test [1] is “inhibited”. For the same compound, in test [2], the “Effect on forward sialylation activity of ST3Gal-III” value was “inhibited”.

As for `Nc1ccn([C@@H]2O[C@H](COP(=O)(O)OP(=O)(O)O)[C@@H](O)[C@H]2O)c(=O)n1` [5′-CDP], the “Effect on forward sialylation activity of ST3Gal-II” value in test [1] is “inhibited”. Moreover, the “Effect on forward sialylation activity of ST3Gal-III” value in test [2] is “inhibited”.
